ChEMBL document CHEMBL5356939, “Research progress of anticancer drugs targeting CDK12” (RSC Med Chem, 2023)

Key:
[1] = biological target: T1, Cyclin-dependent kinase 9 (Homo sapiens, UniProt P50750); test: Inhibition of recombinant human CDK9 expressed in baculovirus infected Insect cell measured after 30 mins by scintillation counter analysis
[2] = biological target: T2, Protein cereblon/Cyclin-dependent kinase 12 (Homo sapiens, UniProt Q96SW2+Q9NYV4); test: Protac activity at CRBN/CDK12 in human MOLT-4 cells assessed as […] by Westernblot analysis; assay type: cell-based
[3] = biological target: T3, Cyclin-dependent kinase 12 (Homo sapiens, UniProt Q9NYV4); test: Inhibition of GST-tagged recombinant human CDK12 (696 to 1082 residues) expressed in Insect cell in presence of ATP by Km ATP assay
[4] = biological target: T4, Cyclin-dependent kinase 7 (Homo sapiens, UniProt P50613); test: Inhibition of full length recombinant human CDK7 expressed in Insect cell in presence of ATP
[5] = biological target: Cyclin-dependent kinase 1 (Homo sapiens, UniProt P06493); test: Inhibition of full length recombinant human CDK1 expressed in Insect cell in presence of ATP
[6] = biological target: T1, Cyclin-dependent kinase 9
Description: Binding affinity to CDK9 (unknown origin) assessed as dissociation constant

[7] = biological target: Cyclin-dependent kinase 6 (Homo sapiens, UniProt Q00534)
Description: Binding affinity to CDK6 (unknown origin) assessed as dissociation constant

[8] = Antiproliferative activity against human Neuroblastoma cell assessed as […] measured after 72 hrs; assay type: functional, cell-based
[9] = tested on: Lung cancer cell line; test: Antiproliferative activity against human Lung cancer cell line assessed as […] measured after 72 hrs; assay type: functional, cell-based
[10] = biological target: T3, Cyclin-dependent kinase 12; test: Inhibition of GST-tagged recombinant human CDK12 (696 to 1082 residues) expressed in Insect cell in presence of ATP by high ATP assay
[11] = biological target: T1, Cyclin-dependent kinase 9; test: Inhibition of full length recombinant human CDK9 expressed in Insect cell in presence of ATP
[12] = biological target: Cyclin-dependent kinase 2 (Homo sapiens, UniProt P24941); test: Inhibition of full length recombinant human CDK2 expressed in Insect cell in presence of ATP
[13] = biological target: T2, Protein cereblon/Cyclin-dependent kinase 12; test: Protac activity at CRBN/CDK12 in human Jurkat cells assessed as […] measured after 6 hrs by Westernblot analysis; assay type: cell-based
[14] = biological target: Cyclin-dependent kinase 12 (Mus musculus, UniProt Q14AX6); test: Inhibition of CDK12 in mouse OV2944-HM-1 cells by Westernblot analysis; assay type: cell-based
[15] = biological target: Cyclin-dependent kinase 13 (Homo sapiens, UniProt Q14004); test: Inhibition of CDK13 (unknown origin)
[16] = biological target: T3, Cyclin-dependent kinase 12; test: Inhibition of CDK12 (unknown origin)
[17] = biological target: T4, Cyclin-dependent kinase 7; test: Inhibition of CDK7 (unknown origin)

T3 sequence (Q9NYV4 whole entry, the tested form may be a part): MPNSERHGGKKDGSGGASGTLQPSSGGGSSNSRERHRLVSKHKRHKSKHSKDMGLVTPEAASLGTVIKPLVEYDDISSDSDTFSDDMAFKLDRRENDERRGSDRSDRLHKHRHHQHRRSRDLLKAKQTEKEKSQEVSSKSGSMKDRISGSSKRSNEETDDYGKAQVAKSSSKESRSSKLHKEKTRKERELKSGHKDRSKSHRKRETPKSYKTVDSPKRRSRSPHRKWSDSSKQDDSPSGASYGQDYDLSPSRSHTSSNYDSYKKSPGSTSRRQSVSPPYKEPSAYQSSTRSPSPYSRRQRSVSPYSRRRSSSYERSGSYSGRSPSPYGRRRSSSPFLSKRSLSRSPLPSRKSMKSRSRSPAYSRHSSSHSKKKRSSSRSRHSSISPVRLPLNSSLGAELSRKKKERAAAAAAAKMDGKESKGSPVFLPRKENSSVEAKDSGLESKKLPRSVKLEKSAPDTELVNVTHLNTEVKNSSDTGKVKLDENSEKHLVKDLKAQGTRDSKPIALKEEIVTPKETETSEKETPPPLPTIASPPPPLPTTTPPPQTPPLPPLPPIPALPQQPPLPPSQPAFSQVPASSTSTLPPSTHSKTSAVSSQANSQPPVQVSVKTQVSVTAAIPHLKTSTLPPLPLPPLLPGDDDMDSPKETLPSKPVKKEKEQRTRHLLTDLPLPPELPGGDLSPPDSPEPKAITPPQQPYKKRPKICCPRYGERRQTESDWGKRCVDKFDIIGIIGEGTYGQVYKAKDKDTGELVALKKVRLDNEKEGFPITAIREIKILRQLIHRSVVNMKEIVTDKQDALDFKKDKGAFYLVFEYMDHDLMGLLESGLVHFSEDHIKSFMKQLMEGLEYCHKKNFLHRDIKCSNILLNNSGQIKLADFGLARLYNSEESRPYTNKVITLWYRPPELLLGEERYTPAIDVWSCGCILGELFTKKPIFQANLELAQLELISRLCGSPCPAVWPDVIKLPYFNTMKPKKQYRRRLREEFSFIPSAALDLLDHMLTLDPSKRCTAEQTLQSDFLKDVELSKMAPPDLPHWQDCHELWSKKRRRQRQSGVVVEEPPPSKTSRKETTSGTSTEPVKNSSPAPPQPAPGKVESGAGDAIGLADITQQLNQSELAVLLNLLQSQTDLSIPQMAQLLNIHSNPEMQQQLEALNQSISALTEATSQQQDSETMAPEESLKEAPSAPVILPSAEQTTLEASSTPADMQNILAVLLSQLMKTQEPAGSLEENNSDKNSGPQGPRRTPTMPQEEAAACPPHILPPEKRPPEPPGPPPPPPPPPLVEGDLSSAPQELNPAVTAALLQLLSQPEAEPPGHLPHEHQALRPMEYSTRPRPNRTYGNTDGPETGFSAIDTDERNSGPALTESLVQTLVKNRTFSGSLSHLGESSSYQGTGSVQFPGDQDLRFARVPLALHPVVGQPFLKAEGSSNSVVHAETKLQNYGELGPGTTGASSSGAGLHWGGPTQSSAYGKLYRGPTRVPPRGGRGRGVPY
T2 sequence (Q9NYV4 whole entry, the tested form may be a part): as above
T2 sequence (Q96SW2 whole entry, the tested form may be a part): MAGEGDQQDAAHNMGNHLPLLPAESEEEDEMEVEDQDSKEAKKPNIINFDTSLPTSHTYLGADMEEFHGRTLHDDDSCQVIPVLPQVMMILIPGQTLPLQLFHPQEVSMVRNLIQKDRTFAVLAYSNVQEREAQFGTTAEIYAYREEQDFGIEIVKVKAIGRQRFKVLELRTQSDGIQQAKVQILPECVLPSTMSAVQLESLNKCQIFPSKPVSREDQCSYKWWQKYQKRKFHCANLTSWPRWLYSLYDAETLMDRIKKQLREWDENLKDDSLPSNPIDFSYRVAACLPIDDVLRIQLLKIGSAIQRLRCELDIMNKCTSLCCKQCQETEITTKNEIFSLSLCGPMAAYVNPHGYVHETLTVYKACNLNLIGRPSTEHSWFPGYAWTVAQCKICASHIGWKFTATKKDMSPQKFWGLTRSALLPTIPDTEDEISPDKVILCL
T4 sequence (P50613 whole entry): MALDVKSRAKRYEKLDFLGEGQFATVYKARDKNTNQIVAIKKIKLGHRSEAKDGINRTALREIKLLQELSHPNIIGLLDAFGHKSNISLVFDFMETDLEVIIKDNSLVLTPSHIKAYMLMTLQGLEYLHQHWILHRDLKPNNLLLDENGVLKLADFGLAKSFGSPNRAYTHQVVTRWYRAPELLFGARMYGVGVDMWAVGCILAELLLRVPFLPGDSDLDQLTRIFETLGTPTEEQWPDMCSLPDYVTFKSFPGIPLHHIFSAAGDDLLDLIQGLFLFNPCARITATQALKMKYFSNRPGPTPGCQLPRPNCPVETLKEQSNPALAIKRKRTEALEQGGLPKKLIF
T1 sequence (P50750 whole entry): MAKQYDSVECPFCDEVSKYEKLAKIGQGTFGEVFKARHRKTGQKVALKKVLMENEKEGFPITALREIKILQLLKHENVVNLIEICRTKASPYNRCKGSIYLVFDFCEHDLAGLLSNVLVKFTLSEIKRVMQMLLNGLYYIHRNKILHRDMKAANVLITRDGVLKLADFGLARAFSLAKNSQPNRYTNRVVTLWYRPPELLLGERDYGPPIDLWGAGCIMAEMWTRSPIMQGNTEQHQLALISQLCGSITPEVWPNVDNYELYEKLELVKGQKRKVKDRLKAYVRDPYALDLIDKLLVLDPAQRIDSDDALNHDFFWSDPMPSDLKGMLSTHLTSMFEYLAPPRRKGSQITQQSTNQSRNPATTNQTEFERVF
Cyclin-dependent kinase 1, sequence (P06493 whole entry): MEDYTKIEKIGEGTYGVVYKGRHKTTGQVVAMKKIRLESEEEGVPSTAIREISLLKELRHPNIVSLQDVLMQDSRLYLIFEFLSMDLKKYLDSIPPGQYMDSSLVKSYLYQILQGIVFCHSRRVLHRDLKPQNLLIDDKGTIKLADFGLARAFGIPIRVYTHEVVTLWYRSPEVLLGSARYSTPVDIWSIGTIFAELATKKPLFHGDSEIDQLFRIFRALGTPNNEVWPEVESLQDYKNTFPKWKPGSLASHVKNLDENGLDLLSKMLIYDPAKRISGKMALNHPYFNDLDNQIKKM
Cyclin-dependent kinase 12 (Mus musculus, UniProt Q14AX6), sequence (Q14AX6 whole entry): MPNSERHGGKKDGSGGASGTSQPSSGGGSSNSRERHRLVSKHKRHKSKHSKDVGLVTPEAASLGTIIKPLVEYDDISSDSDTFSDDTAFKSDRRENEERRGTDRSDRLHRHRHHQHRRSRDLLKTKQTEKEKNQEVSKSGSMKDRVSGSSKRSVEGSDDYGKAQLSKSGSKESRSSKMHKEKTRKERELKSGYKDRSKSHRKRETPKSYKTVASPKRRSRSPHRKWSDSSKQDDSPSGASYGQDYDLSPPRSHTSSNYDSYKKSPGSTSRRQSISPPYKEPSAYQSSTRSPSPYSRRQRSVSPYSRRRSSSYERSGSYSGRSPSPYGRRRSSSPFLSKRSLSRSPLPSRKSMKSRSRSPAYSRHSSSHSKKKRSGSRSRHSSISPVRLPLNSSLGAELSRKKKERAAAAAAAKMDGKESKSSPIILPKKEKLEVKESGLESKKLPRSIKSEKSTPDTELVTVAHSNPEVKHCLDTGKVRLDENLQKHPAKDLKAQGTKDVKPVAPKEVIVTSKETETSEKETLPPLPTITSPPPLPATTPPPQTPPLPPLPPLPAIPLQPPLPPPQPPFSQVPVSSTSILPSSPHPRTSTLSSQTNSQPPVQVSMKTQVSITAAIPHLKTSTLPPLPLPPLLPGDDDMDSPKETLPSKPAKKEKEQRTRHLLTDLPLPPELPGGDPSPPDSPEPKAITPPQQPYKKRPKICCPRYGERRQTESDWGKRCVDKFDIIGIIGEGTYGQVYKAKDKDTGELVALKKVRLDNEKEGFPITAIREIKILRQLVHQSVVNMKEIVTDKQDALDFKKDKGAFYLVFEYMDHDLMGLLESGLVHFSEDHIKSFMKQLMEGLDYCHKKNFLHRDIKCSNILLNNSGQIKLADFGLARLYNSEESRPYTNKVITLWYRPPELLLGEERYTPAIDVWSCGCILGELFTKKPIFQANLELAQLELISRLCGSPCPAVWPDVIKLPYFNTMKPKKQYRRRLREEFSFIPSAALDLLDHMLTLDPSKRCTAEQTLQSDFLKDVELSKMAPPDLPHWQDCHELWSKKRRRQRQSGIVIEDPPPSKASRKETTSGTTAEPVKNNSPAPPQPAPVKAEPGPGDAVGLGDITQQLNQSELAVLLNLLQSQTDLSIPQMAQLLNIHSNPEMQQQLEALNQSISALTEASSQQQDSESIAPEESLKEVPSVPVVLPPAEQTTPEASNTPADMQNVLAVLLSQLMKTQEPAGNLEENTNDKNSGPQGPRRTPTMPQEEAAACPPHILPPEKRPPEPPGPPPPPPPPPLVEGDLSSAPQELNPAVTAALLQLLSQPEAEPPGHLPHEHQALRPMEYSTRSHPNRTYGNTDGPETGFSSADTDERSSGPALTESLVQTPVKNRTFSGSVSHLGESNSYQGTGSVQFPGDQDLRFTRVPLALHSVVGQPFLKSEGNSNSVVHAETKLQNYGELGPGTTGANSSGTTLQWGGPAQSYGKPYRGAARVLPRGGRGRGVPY
Cyclin-dependent kinase 6, sequence (Q00534 whole entry): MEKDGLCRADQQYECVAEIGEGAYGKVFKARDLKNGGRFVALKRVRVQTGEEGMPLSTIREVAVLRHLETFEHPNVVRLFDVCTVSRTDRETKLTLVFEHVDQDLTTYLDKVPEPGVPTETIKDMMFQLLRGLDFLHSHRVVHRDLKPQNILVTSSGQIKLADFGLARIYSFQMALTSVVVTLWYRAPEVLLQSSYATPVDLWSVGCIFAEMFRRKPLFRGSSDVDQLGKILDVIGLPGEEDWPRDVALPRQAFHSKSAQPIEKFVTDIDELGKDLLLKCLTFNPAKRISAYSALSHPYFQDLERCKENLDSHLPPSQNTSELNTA

Work on CN(C)C/C=C/C(=O)Nc1ccc(C(=O)N2CCC[C@@H](Nc3ncc(Cl)c(-c4c[nH]c5ccccc45)n3)C2)cc1 yielded an IC50 [1] of 10500 nM.
In the case of Clc1cnc(N[C@H]2CCCNC2)nc1-c1c[nH]c2ccccc12, the IC50 [2] is reported as 107 nM.
In the case of CCn1cnc2c(NCc3nc4ccc(F)c(F)c4[nH]3)nc(N3CCCC[C@H]3CCO)nc21, the IC50 [3] is reported as 14 nM, the IC50 [4] is reported as greater than 30000 nM and the IC50 [5] is reported as 28600 nM.
Molecule Cn1cc(-n2cnc3c(NCc4nc5cc(Cl)c(Cl)cc5[nH]4)nc(N4CCOCC4)nc32)cn1 has a Kd [6] greater than 10000 nM and a Kd [7] of 5100 nM.
CC(C)n1cnc2c(NCc3nc4ccc(F)c(F)c4[nH]3)nc(N3CCCC[C@H]3CCO)nc21 showed an IC50 [3] of 31 nM.
C=CC(=O)Nc1cccc(Nc2nc(N3CCCC[C@H]3CCO)nc3c2ncn3CC)c1 showed an IC50 [8] of 8 nM and an IC50 [9] of 8 nM.
In the case of CCc1cnn2c(NCc3nc4ccc(F)c(F)c4[nH]3)cc(N3CCCC[C@H]3CCO)nc12, the IC50 [3] is reported as 22 nM, the IC50 [10] is reported as 47 nM and the IC50 [11] is reported as 240 nM. For the same molecule, the IC50 [4] was 21200 nM, the IC50 [12] was 40 nM and the IC50 [5] was 3410 nM.
CC(C)S(=O)(=O)c1ccccc1Nc1nc(N[C@H]2CCCN(CCCCCCCNC(=O)COc3cccc4c3C(=O)N(C3CCC(=O)NC3=O)C4=O)C2)ncc1Cl (stereo partly drawn) showed an IC50 [13] of 6 nM.
With O=C(COc1cccc2c1C(=O)N(C1CCC(=O)NC1=O)C2=O)NCCCCCCCN1CCC[C@H](Nc2ncc(Cl)c(-c3c[nH]c4ccccc34)n2)C1 (stereo partly drawn) the IC50 [2] was 9 nM.
O=C(CN1CCC[C@@H](Nc2ncc(Cl)c(-c3c[nH]c4ccccc34)n2)C1)Nc1ccc([As](O)O)cc1 showed an EC50 [14] of 35 nM.
CN(C)C/C=C/C(O)Nc1ccc(C(=O)Nc2cccc(Nc3ncc(Cl)c(-c4c[nH]c5ccccc45)n3)c2)cc1 (stereo not drawn) gave an IC50 [15] of 628 nM, an IC50 [16] of 893 nM and an IC50 [17] of 238 nM.
O=C(CN1CCC[C@@H](Nc2ncc(Cl)c(-c3c[nH]c4ccccc34)n2)C1)Nc1ccc([As]2SCCS2)cc1 gave an EC50 [14] of 32 nM.
